For test [1], the target named is Receptor tyrosine-protein kinase erbB-4 (Homo sapiens) (UniProt Q15303). The test can be described thus: Inhibition of ERBB4 (unknown origin) at 10 uM relative to control.
Test [2] concerns the target T1, Mitogen-activated protein kinase kinase kinase 7 (Homo sapiens) (UniProt O43318).
T1 sequence (whole entry): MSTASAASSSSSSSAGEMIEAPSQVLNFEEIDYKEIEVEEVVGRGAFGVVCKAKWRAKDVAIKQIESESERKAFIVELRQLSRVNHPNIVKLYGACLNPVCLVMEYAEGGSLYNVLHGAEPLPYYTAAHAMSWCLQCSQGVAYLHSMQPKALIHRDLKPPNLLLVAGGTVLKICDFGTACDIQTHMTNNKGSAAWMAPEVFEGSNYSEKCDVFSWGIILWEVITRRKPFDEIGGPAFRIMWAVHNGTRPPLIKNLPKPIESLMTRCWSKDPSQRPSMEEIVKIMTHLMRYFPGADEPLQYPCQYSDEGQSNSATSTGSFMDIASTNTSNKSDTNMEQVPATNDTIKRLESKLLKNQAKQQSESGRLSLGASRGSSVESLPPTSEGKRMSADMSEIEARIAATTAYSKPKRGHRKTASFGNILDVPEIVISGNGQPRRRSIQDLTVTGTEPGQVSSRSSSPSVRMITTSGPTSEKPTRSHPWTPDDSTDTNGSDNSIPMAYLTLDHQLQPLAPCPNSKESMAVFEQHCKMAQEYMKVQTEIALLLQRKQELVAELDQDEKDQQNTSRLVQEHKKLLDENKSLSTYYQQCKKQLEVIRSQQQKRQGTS
Description: Inhibition of MAP3K7 (unknown origin) at 10 uM relative to control.

For test [3], the target named is Cyclin-dependent kinase 5/CDK5 activator 1 (Homo sapiens) (UniProt Q00535+Q15078). The test can be described thus: Inhibition of CDK5/P25 (unknown origin) at 10 uM relative to control. In kind it is protein-complex assay.
For test [4], the target named is Tyrosine-protein kinase ABL1 (Homo sapiens) (UniProt P00519). The test can be described thus: Inhibition of ABL1 (unknown origin) at 10 uM relative to control.
Test [5] addresses Insulin receptor (Homo sapiens) (UniProt P06213). The test can be described thus: Inhibition of INSR (unknown origin) at 10 uM relative to control.
Test [6] addresses Calcium/calmodulin-dependent protein kinase type II subunit alpha (Homo sapiens) (UniProt Q9UQM7). The test can be described thus: Inhibition of CAMK2alpha (unknown origin) at 10 uM relative to control.
Test [7] addresses Leucine-rich repeat serine/threonine-protein kinase 2 (Homo sapiens, UniProt Q5S007). Description: Inhibition of LRRK2 (unknown origin) at 10 uM relative to control.
In test [8] the target is Receptor-type tyrosine-protein kinase FLT3 (Homo sapiens) (UniProt P36888). Description: Inhibition of FLT3 (unknown origin) at 10 uM relative to control.
For test [9], the target named is Protein-tyrosine kinase 2-beta (Homo sapiens) (UniProt Q14289). The test can be described thus: Inhibition of FAK2 (unknown origin) at 10 uM relative to control.
Test [10] addresses Rho-associated protein kinase 2 (Homo sapiens) (UniProt O75116). The test can be described thus: Inhibition of ROCK2 (unknown origin) at 10 uM relative to control.
Test [11] concerns the target T2, Dual specificity protein kinase TTK (Homo sapiens) (UniProt P33981).
T2 sequence (whole entry): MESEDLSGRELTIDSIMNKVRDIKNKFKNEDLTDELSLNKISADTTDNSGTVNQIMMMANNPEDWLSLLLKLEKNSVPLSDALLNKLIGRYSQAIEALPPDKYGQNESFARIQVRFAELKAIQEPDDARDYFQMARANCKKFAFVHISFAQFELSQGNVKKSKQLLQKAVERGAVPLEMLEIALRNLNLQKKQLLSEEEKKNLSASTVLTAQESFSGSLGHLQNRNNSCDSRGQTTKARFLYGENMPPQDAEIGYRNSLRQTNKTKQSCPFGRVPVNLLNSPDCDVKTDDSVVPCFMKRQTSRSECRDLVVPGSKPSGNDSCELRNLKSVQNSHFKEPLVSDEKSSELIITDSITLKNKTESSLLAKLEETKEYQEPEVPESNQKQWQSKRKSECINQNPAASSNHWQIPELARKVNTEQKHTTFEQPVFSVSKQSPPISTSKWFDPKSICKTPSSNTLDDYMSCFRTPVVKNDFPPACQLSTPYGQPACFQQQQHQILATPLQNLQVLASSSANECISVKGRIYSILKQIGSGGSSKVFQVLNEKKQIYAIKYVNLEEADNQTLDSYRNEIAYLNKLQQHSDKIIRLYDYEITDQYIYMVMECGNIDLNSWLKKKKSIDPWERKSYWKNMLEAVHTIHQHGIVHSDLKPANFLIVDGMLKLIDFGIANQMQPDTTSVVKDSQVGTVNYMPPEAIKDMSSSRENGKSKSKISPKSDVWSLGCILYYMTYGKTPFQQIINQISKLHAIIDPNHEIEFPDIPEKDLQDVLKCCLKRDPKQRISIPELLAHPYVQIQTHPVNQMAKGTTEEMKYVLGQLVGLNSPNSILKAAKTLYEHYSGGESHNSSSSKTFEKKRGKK
The test can be described thus: Inhibition of TTK (unknown origin) at 10 uM relative to control.

In test [12] the target is Protein kinase C beta type (Homo sapiens) (UniProt P05771). Description: Inhibition of PRKCbeta1 (unknown origin) at 10 uM relative to control.
The target in test [13] is Dual specificity tyrosine-phosphorylation-regulated kinase 1B (Homo sapiens) (UniProt Q9Y463). Description: Inhibition of DYRK1B (unknown origin) at 10 uM relative to control.
The target of test [14] is RAF proto-oncogene serine/threonine-protein kinase (Homo sapiens) (UniProt P04049). Description: Inhibition of RAF1 (unknown origin) at 10 uM relative to control.
In test [15] the target is Tyrosine-protein kinase Lck (Homo sapiens) (UniProt P06239). The test can be described thus: Inhibition of LCK (unknown origin) at 10 uM relative to control.
Test [16] has as its target Glycogen synthase kinase-3 beta (Homo sapiens) (UniProt P49841). The test can be described thus: Inhibition of GSK3beta (unknown origin) at 10 uM relative to control.
Test [17] deals with Serine/threonine-protein kinase 16 (Homo sapiens) (UniProt O75716). The test can be described thus: Inhibition of STK16 (unknown origin) at 10 uM relative to control.
Test [18] concerns the target Serine/threonine-protein kinase MARK2 (Homo sapiens) (UniProt Q7KZI7). The test can be described thus: Inhibition of MARK2 (unknown origin) at 10 uM relative to control.
For test [19], the target named is Mitogen-activated protein kinase 10 (Homo sapiens) (UniProt P53779). Description: Inhibition of MAPK10 (unknown origin) at 10 uM relative to control.
Test [20] deals with Serine/threonine-protein kinase PLK1 (Homo sapiens) (UniProt P53350). The test can be described thus: Inhibition of PLK1 (unknown origin) at 10 uM relative to control.
Test [21] has as its target Receptor-interacting serine/threonine-protein kinase 2 (Homo sapiens) (UniProt O43353). The test can be described thus: Inhibition of RIPK2 (unknown origin) at 10 uM relative to control.
Test [22] concerns the target Macrophage colony-stimulating factor 1 receptor (Homo sapiens, UniProt P07333). The test can be described thus: Inhibition of CSF1R (unknown origin) at 10 uM relative to control.

Chain of Tyrosine-protein kinase ABL1 (Homo sapiens) (P00519 whole entry): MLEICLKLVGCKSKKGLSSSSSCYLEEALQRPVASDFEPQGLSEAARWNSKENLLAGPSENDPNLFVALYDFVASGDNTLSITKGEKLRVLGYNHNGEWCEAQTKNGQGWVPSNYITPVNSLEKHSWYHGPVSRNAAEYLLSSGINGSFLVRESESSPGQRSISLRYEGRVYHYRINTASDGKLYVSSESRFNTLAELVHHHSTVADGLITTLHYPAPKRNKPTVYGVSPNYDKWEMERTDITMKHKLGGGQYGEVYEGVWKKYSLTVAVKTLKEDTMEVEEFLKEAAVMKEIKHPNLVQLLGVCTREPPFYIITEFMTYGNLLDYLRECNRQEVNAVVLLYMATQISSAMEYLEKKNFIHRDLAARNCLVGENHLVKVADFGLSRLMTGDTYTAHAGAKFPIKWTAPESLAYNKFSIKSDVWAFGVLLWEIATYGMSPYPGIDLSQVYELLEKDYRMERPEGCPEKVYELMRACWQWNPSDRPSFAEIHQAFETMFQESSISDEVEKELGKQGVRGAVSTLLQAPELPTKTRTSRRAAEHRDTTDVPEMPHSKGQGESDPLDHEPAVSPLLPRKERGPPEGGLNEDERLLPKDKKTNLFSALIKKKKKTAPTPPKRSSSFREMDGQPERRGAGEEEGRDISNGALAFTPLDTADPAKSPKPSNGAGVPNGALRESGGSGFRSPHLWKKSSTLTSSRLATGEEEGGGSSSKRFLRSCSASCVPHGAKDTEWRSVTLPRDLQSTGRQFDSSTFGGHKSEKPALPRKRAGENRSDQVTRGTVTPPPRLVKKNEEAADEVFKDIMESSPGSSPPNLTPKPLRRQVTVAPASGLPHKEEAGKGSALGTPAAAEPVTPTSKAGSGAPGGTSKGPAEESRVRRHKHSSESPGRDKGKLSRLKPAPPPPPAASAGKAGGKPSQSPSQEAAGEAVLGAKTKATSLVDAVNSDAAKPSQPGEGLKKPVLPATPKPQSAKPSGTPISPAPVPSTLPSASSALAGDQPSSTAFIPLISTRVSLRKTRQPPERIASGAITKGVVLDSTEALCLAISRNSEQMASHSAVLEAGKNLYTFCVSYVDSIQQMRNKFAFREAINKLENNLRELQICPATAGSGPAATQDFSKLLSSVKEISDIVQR
Chain of Mitogen-activated protein kinase 10 (Homo sapiens) (P53779 whole entry): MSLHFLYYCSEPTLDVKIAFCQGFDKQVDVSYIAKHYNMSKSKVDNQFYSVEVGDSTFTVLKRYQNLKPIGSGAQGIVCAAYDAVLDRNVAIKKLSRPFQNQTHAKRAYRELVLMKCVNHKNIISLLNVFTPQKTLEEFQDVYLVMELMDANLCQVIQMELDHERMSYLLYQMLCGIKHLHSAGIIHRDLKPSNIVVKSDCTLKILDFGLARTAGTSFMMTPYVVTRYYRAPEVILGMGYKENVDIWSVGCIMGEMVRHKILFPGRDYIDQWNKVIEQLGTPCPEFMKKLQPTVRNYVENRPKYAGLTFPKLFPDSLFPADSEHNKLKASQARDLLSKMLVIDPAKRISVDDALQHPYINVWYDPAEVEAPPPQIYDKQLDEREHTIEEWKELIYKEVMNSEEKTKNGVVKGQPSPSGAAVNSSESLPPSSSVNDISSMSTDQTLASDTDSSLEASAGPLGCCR
Chain of Cyclin-dependent kinase 5/CDK5 activator 1 (Homo sapiens) (Q00535 whole entry): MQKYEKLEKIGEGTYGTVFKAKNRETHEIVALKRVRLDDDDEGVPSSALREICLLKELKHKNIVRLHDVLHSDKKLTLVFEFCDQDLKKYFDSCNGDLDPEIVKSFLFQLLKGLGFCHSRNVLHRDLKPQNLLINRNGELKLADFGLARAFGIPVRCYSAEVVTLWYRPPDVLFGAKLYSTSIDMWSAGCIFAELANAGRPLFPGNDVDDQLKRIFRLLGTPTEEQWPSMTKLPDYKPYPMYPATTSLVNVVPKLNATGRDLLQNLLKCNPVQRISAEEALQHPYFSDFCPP
Chain of Cyclin-dependent kinase 5/CDK5 activator 1 (Homo sapiens) (Q15078 99-307 partner limits assumed): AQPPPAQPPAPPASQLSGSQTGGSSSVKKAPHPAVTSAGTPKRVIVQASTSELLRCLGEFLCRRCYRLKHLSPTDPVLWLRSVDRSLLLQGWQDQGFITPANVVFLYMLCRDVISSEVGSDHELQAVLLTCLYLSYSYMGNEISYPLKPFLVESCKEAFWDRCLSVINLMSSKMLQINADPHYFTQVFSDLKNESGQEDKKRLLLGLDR
Chain of Rho-associated protein kinase 2 (Homo sapiens) (O75116 whole entry, looked up): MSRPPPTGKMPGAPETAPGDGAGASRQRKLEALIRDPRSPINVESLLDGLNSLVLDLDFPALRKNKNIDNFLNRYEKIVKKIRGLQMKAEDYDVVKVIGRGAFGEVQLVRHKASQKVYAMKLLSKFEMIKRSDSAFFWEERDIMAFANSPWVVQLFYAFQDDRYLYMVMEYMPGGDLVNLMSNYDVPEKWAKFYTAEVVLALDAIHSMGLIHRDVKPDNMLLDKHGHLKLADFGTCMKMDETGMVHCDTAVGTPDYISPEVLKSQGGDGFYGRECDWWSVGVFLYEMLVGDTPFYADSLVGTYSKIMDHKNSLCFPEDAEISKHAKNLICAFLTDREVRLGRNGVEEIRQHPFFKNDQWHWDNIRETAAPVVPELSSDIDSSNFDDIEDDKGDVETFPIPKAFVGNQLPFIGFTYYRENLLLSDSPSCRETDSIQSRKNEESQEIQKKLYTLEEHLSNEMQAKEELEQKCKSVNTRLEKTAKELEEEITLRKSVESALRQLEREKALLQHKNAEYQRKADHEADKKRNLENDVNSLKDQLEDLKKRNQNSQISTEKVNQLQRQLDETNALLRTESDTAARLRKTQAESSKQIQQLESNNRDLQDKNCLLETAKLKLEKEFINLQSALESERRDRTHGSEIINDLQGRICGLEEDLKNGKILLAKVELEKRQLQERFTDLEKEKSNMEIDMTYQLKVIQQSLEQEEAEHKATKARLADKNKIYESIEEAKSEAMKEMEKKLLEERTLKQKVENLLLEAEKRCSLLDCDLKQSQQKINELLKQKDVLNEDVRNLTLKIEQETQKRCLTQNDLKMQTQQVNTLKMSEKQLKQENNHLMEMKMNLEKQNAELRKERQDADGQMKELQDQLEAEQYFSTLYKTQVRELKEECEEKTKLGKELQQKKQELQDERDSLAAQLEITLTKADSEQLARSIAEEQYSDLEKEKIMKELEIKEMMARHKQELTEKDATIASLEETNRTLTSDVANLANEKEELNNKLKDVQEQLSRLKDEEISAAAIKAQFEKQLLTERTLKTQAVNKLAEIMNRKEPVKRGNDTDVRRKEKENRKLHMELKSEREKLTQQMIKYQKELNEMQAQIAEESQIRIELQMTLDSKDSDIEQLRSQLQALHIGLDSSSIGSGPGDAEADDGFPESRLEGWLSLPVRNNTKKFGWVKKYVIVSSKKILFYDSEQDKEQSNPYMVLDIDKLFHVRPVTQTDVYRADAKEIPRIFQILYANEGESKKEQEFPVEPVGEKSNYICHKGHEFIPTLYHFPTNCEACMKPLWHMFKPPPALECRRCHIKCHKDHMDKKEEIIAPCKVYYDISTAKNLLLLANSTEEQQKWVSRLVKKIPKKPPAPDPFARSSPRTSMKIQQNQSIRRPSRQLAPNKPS
Chain of Macrophage colony-stimulating factor 1 receptor (P07333 whole entry): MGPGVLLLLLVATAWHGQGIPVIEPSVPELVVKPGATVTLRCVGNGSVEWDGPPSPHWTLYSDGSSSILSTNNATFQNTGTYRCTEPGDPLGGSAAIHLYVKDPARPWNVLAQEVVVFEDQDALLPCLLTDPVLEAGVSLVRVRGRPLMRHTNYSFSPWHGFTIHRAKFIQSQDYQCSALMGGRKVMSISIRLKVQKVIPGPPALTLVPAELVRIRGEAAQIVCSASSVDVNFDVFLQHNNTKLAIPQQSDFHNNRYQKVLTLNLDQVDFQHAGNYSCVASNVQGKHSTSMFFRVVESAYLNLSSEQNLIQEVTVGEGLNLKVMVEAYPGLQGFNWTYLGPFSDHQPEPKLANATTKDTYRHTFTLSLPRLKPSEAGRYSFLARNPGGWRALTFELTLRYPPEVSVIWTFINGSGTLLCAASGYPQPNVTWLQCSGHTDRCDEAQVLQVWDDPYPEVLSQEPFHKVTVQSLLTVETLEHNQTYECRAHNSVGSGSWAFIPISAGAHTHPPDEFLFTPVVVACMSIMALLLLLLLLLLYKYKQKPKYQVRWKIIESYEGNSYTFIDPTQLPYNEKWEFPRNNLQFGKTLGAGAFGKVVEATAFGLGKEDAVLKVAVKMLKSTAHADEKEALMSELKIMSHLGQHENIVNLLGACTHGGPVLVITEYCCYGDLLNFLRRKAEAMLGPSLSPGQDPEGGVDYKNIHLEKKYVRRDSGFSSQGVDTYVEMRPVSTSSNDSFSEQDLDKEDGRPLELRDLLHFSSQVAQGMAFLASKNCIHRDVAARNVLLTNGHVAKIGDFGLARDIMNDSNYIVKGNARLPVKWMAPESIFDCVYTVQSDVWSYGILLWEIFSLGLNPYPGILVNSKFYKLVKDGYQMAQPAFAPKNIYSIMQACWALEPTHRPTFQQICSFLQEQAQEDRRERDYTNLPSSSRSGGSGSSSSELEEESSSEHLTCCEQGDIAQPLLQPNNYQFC
Chain of Tyrosine-protein kinase Lck (Homo sapiens) (P06239 2-509 limits assumed): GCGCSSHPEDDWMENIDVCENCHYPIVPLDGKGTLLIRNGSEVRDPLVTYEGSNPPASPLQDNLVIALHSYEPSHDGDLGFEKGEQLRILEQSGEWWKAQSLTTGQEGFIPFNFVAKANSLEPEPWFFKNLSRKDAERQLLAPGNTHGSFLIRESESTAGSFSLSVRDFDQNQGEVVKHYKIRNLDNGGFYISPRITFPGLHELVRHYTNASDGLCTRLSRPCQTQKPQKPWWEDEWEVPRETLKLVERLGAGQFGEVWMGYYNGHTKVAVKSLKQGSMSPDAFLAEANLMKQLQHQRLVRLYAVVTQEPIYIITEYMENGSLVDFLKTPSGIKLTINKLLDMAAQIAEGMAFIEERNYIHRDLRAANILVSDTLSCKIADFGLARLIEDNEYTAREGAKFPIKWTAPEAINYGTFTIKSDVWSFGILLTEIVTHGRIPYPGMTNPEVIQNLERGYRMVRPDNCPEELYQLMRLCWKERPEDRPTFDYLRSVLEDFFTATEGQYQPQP

As usually defined, the inhibition is the drop in the measured response relative to a control, in per cent. For the compound `CS(=O)(=O)c1ccc(-c2ccc3c(NC4CCC4)c(C(N)=O)nnc3c2)cc1`, the inhibition is 4% in test [1]; 66% in [2]; -1% in test [3]; 46% in [4]; 7% in test [5]; 11% in test [6]. Also, the inhibition in test [7] is 97%; in [8] it was 72%; in test [9], 28%; in [10] it was 53%; in test [11], 60%; in test [12], -2%. In addition, the inhibition in test [13] was 20%; in [14], 38%; in [15], 35%; in test [16], 17%; in test [17], 44%; in [18], 53%. In addition, the inhibition in test [19] came out at 21%; in test [20] it was 14%; in test [21] it was 15%; in test [22] it was 100%.

As for `C[C@@H](Nc1c(C(N)=O)nnc2cc(-c3ccc(S(C)(=O)=O)cc3)ccc12)C1CC1`, the inhibition in test [1] worked out at 12%; in test [2], 39%; in test [4], 68%; in [5] it was 0%; in test [6] it was 15%; in test [7], 97%. Further, the inhibition was determined as 80% in [8]; 24% in test [9]; 70% in test [10]; 35% in test [11]; 0% in test [12]; 3% in test [13]. For the same compound, the inhibition in test [14] worked out at 21%; in test [15], 81%; in test [16], 29%; in test [18], 80%; in test [19], 21%; in test [20], 1%. Besides, the inhibition in [21] was determined as 28%; in [22], 100%.

Consider `CC(C)Nc1c(C(N)=O)nnc2cc(N3CCOCC3)ccc12`, for which the inhibition in test [1] is 15%; in test [2] it was 67%; in [3] it was 3%; in test [4], 56%; in [5] it was -1%; in [6], 17%. Moreover, the inhibition was found to be 99% in test [7]; 99% in test [8]; 39% in test [9]; 78% in [10]; 67% in test [11]; 0% in test [12]. The inhibition in test [13] amounted to 7%; in [14], 27%; in test [15], 75%; in [16] it was 42%; in test [17], 40%; in test [18], 81%. Further, the inhibition in test [19] was found to be 17%; in [20], 3%; in test [21], 44%; in test [22] it was 97%.

Take `CC(C)Nc1c(C(N)=O)nnc2cc(-c3ccncc3)ccc12`: the inhibition in [1] is 22%; in [2] it was 102%; in [3], 32%; in [4] it was 91%; in [5], 33%; in test [6] it was 14%. For the same compound, the inhibition in [8] is 96%; in test [9], 78%; in test [10], 97%; in [11], 94%; in test [12], 15%; in [13], 44%. Further, the inhibition in test [14] worked out at 61%; in test [15] it was 85%; in [16], 88%; in test [17] it was 85%; in test [18] it was 95%; in [19], 81%. The inhibition in [20] amounted to 33%; in test [21] it was 76%.

For the origin of these results see ChEMBL document CHEMBL2331489, “Novel cinnoline-based inhibitors of LRRK2 kinase activity” (Bioorg Med Chem Lett, 2013).
